Data as given in patent US20100330136A1, “USE OF CATIONIC SURFACTANTS FOR THE PROTECTION AGANST TOOTH EROSION” (priority 2008, published 2010).

What was measured:
[1] = Tooth coating effect: surface energy from contact angles of sessile drops (Glantz method); type: physicochemical; settings: for Surface Energy: enamel without LAE ca 23 dyn/cm
Description: The tooth coating effect by LAE was validated by the methods described by Glantz PO (1981. “Adhesion in the oral cavity” In Fundamentals and application of surface interactions in the oral cavity (ed. S. A. Leach), pp 49-64. Information Retrieval Ltd. London). The method measures contact angles of sessile drops from liquids with a range of polarities to determine the polar component of the surface energy (gamma p) and dispersive component on teeth coated with LAE. Without LAE the surface energy was 23 dyn/cm. […] In the presence of LAE the surface energy was reduced to a lowest level of 11.5 dyn/cm. This coating provides a shielding effect on teeth against erosion caused by acids from food and beverages.
The surface energy of enamel is ca 23 dyn/cm. This surface energy is reduced by the presence of LAE to the following values: […]

A. naeslundii = test: Antimicrobial activity on the biofilm (Zurich Biofilm Model); type: cell-based, Actinomyces naeslundii; settings: 0.5% LAE; 6 exposures of 1 minute in two days, evaluated 16 h after last exposure; control 8.3
Description: (§1) The biofilm model is a reliable tool to predict the in vivo efficacy of antimicrobials, and de- and remineralization of enamel exposed to biofilms in vitro. The experiments were performed with the Zurich Biofilm Model. Biofilms are formed either on hydroxyapatite (HA) or bovine enamel disks that have preconditioned in pooled, unstimulated saliva. Biofilms are formed in 24-well cell culture dishes incubated anaerobically at 37° C. The detailed description to the preparation of this model was published by Guggenheim et al., 2001, J. Dent. Res. 80 (1) 363-370. The microbial composition of this biofilm was constituted by five bacterial species and a yeast. More specifically, they are as follows: Streptococcus oralis, Streptococcus sobrinus, Actinomyces naeslundii, Veillonella dispar and Fusobacterium nucleatum and the yeast studied was Candida albicans. The bacteria chosen for incorporation into this biofilm model were five species encountered in supragingival plaque.
(§2) Most of the biofilm models are based on a continuous flow culture system which means that biofilms are subjected to shear or detachment forces. In contrast, the biofilm model used in these experiments was based on a batch culture system that was subjected only intermittently to such forces in the course of dip-washing or gentle swirling. […]
(§3) The results of the following table were expressed as log10 of CFU: […]

V. dispar = test: as above; type: cell-based, Veillonella dispar; settings: 0.5% LAE; 6 exposures of 1 minute in two days, evaluated 16 h after last exposure; control 8.1
Description: as §1, §2, §3

F. nucleatum = test: as above; type: cell-based, Fusobacterium nucleatum; settings: 0.5% LAE; 6 exposures of 1 minute in two days, evaluated 16 h after last exposure; control 5.1
Description: as §1, §2, §3

S. sobrinus = test: as above; type: cell-based, Streptococcus sobrinus; settings: 0.5% LAE; 6 exposures of 1 minute in two days, evaluated 16 h after last exposure; control 8.6
Description: as §1, §2, §3

S. oralis = test: as above; type: cell-based, Streptococcus oralis; settings: 0.5% LAE; 6 exposures of 1 minute in two days, evaluated 16 h after last exposure; control 9.0
Description: as §1, §2, §3

C. albicans = test: as above; type: cell-based, Candida albicans; settings: 0.5% LAE; 6 exposures of 1 minute in two days, evaluated 16 h after last exposure; control 5.1
Description: as §1, §2, §3

[2] = system: microorganisms in biofilm (five bacterial species and a yeast); test: Re-growth of biofilms after LAE exposure (Zurich Biofilm Model); type: cell-based; settings: 1% LAE
Description: as §1
Most of the biofilm models are based on a continuous flow culture system which means that biofilms are subjected to shear or detachment forces. In contrast, the biofilm model used in these experiments was based on a batch culture system that was subjected only intermittently to such forces in the course of dip-washing or gentle swirling. Thus, this biofilm model allows for controlled substance exposure times resembling those encountered during mouth rinsing.
The biofilms were exposed to LAE only 6 times during 1 minute in two subsequent days. The evaluation of the LAE effects was studied 16 h after the last exposure.
This experiment compared the re-growth of microorganisms in a control biofilm against a biofilm exposed to LAE. The content of microorganisms in each biofilm was studied along the time. For each point of analysis the growth of microorganisms was studied before and after a dip in a saline solution for control biofilms and in LAE for the other biofilms after each feeding.
The results are expressed as log10 of CFU: […]

[3] = Effect of LAE on acids generated from sugar rinses: pH on tooth plaque interfaces; type: in vivo, Humans; settings: for intraoral pH after 10% sucrose rinse: 0.16% LAE, humans
Description: It has been established, that beverages and food containing sugars promote tooth erosion. The American Dental Association (ADA) food and nutrition programs recommend a procedure for evaluating pH in the mouth after ingestion of food and beverages. This is summarized in the FDA guidelines published in Federal Register 43433, vol 61, No. 165, 1996. The procedure involved measuring pH on tooth plaque interfaces after giving the subjects (6 subjects per group) 10% sucrose rinse in the presence or absence of treatment with 0.16% LAE versus placebo solution containing flavor, sweetener, plasticizer (components of chewing gum) to assess their acid neutralizing effects. […] Whereas rinsing with LAE maintains a pH of 5.4±0.3 which is above the danger zone maintained for 3 and 7 days of continuous monitoring. This validates that LAE not only coats the surface of teeth but maintains a healthy pH around teeth to prevent erosion.
Another effect produced by LAE is the pH neutralization. Upon hydrolysis LAE forms arginine which is a natural pH neutralizer in human saliva. The following table reports the intraoral pH with LAE versus a placebo from 0 to 7 days after 10% sucrose rinse: […]

[4] = system: Arthrobacter oxydans ATCC 8010; settings: Gram + bacteria; cited from earlier work
[5] = system: Bacillus cereus var mycoide ATCC 11778; settings: Gram + bacteria; cited from earlier work
[6] = system: Bacillus subtilis ATCC 6633; settings: Gram + bacteria; cited from earlier work
[7] = system: Clostridium perfringens ATCC 77454; settings: Gram + bacteria; cited from earlier work
[8] = system: Listeria monocytogenes ATCC 7644; settings: Gram + bacteria; cited from earlier work
[9] = system: Staphylococcus aureus ATCC 6538; settings: Gram + bacteria; cited from earlier work
[10] = system: Micrococcus luteus ATCC 9631; settings: Gram + bacteria; cited from earlier work
[11] = system: Lactobacillus delbrueckii ssp lactis CECT 372; settings: Gram + bacteria; cited from earlier work
[12] = system: Leuconostoc mesenteroides CETC 912; settings: Gram + bacteria; cited from earlier work
[13] = system: Streptococcus mutans ATCC 25175; settings: Gram + bacteria; cited from earlier work
[14] = system: Alcaligenes faecalis ATCC 8750; settings: Gram − bacteria; cited from earlier work
[15] = system: Bordetella bronchiseptica ATCC 4617; settings: Gram − bacteria; cited from earlier work
[16] = system: Citrobacter freundii ATCC 22636; settings: Gram − bacteria; cited from earlier work
[17] = system: Enterobacter aerogenes CECT 689; settings: Gram − bacteria; cited from earlier work
[18] = system: Escherichia coli ATCC 8739; settings: Gram − bacteria; cited from earlier work
Escherichia coli 0157H7 = settings: Gram − bacteria; cited from earlier work
[19] = system: Klebsiella pneumoniae var pneumoniae CECT 178; settings: Gram − bacteria; cited from earlier work
[20] = system: Proteus mirabilis CECT 170; settings: Gram − bacteria; cited from earlier work
[21] = system: Pseudomonas aeruginosa ATCC 9027; settings: Gram − bacteria; cited from earlier work
[22] = system: Salmonella typhimurium ATCC16028; settings: Gram − bacteria; cited from earlier work
[23] = system: Serratia marcenses CECT 274; settings: Gram − bacteria; cited from earlier work
[24] = system: Mycobacterium phlei ATCC 41423; settings: listed under Gram − bacteria; cited from earlier work
[25] = system: Aspergillus niger ATCC14604; settings: Fungi; cited from earlier work
[26] = system: Aureobasidium pullulans ATCC 9348; settings: Fungi; cited from earlier work
[27] = system: Gliocadium virens ATCC 4645; settings: Fungi; cited from earlier work
[28] = system: Chaetonium globosum ATCC 6205; settings: Fungi; cited from earlier work
[29] = system: Penicillium chrysogenum CECT 2802; settings: Fungi; cited from earlier work
[30] = system: Penicillium funiculosum CECT 2914; settings: Fungi; cited from earlier work
[31] = system: Candida albicans ATCC 10231; settings: Yeast; cited from earlier work
[32] = system: Rhodotorula rubra CECT 1158; settings: Yeast; cited from earlier work
[33] = system: Saccharomyces cerevisiae ATCC 9763; settings: Yeast; cited from earlier work
[34] = rats; cited from earlier work
[35] = cited from earlier work

In the case of `CCCCCCCCCCCC(=O)N[C@@H](CCCN=C(N)N)C(=O)OCC.Cl` [LAE, ethyl ester of the lauramide of the arginine monohydrochloride], the “Surface Energy” value ([1]; [LAE] 0.00001 %) is reported as 21.5 dyn/cm, the “Surface Energy” value ([1]; [LAE] 0.001 %) is reported as 16.5 dyn/cm and the “Surface Energy” value ([1]; [LAE] 0.01 %) is reported as 11.5 dyn/cm. For the same compound, the “Surface Energy” value ([1]; [LAE] 0.1 %) was 14 dyn/cm, the “Surface Energy” value ([1]; [LAE] 1 %) was 12 dyn/cm and the “Surface energy, lowest level in the presence of LAE” value ([1]; lowest level, without LAE 23 dyn/cm) was 11.5 dyn/cm. The “log10 of CFU in biofilm” value (A. naeslundii) was 2.5 log10 of CFU, the “log10 of CFU in biofilm” value (V. dispar) was 5.0 log10 of CFU and the “log10 of CFU in biofilm” value (F. nucleatum) was 2.1 log10 of CFU. The “log10 of CFU in biofilm” value (S. sobrinus) was 6.1 log10 of CFU, the “log10 of CFU in biofilm” value (S. oralis) was 6.1 log10 of CFU and the “log10 of CFU in biofilm” value (C. albicans) was 2.1 log10 of CFU. The “log10 of CFU, biofilm re-growth” value ([2]; 16.5 h, After 1 dip, control 7.2) was 3.5 log10 of CFU, the “log10 of CFU, biofilm re-growth” value ([2]; 16.5 h, Before 1 dip, control 7.1) was 7.1 log10 of CFU and the “log10 of CFU, biofilm re-growth” value ([2]; 24.5 h, After 3 dip, control 7.4) was 2.2 log10 of CFU. The “log10 of CFU, biofilm re-growth” value ([2]; 24.5 h, Before 3 dip, control 8.1) was 1.4 log10 of CFU, the “log10 of CFU, biofilm re-growth” value ([2]; 40.5 h, After 4 dip, control 8.1) was 1.2 log10 of CFU and the “log10 of CFU, biofilm re-growth” value ([2]; 40.5 h, Before 4 dip, control 8.1) was 5.9 log10 of CFU. For the same compound, the “log10 of CFU, biofilm re-growth” value ([2]; 48.5 h, After 6 dip, control 8.4) was 1.2 log10 of CFU, the “log10 of CFU, biofilm re-growth” value ([2]; 48.5 h, Before 6 dip, control 8.5) was 3.2 log10 of CFU and the “log10 of CFU, biofilm re-growth” value ([2]; 64.5 h, Endpoint, control 9.0) was 4.3 log10 of CFU. The “intraoral pH after 10% sucrose rinse” value ([3]; Day 0, placebo 6) was 6, the “intraoral pH after 10% sucrose rinse” value ([3]; Day 3, placebo 4.3) was 5.3 and the “intraoral pH after 10% sucrose rinse” value ([3]; Day 7, placebo 4.3) was 5.2. The “pH of the tooth interface after 10% sucrose rinse” value ([3]; maintained for 3 and 7 days of continuous monitoring, 0.16% LAE rinse, placebo 4.3±0.2, danger zone below pH 5) was 5.4±0.3, the M.I.C. [4] was 64 ppm and the M.I.C. [5] was 32 ppm. The M.I.C. [6] was 16 ppm, the M.I.C. [7] was 16 ppm and the M.I.C. [8] was 10 ppm. For the same compound, the M.I.C. [9] was 32 ppm, the M.I.C. [10] was 128 ppm and the M.I.C. [11] was 16 ppm. For the same compound, the M.I.C. [12] was 32 ppm, the M.I.C. [13] was 64 ppm and the M.I.C. [14] was 64 ppm. The M.I.C. [15] was 128 ppm, the M.I.C. [16] was 64 ppm and the M.I.C. [17] was 32 ppm. The M.I.C. [18] was 32 ppm, the M.I.C. (Escherichia coli 0157H7) was 20 ppm and the M.I.C. [19] was 32 ppm. For the same compound, the M.I.C. [20] was 32 ppm, the M.I.C. [21] was 64 ppm and the M.I.C. [22] was 32 ppm. The M.I.C. [23] was 32 ppm, the M.I.C. [24] was 2 ppm and the M.I.C. [25] was 32 ppm. The M.I.C. [26] was 16 ppm, the M.I.C. [27] was 32 ppm and the M.I.C. [28] was 16 ppm. For the same compound, the M.I.C. [29] was 128 ppm, the M.I.C. [30] was 16 ppm and the M.I.C. [31] was 16 ppm. For the same compound, the M.I.C. [32] was 16 ppm, the M.I.C. [33] was 32 ppm and the absorption and metabolism [34] was “fast absorption and metabolisation into naturally-occurring amino acids and the fatty acid lauric acid”. For the same compound, the “tolerance and toxicity in practical use” value ([35]; human beings) was “well tolerated and to display a very low toxicity to human beings” and the toxicity ([35]; toxicological studies, animals and humans) was “completely harmless to animals and humans”.
